The test system of assay [1] is secretion of gastric fluids. Briefly: anti-secretory activity in pylorus-ligated rats (method of Shay et al.). To be noted: 100 mg./kg.; for inhibition in vivo at 100 mg/kg: Rattus norvegicus, 5 h, read-out: % Inhibition of Free Acid. The format is in vivo, male albino Wistar rats. Here is the method: In standard biological test procedures, described generally by Shay et al., Gastroenterology 5, 43 (1945) and 26, 906 (1954) and by Selmici et al., Acta Physiol. Acad. Sci. Hung. […] Anti-secretory activity was determined in male albino Wistar rats weighing approximately 180 g. using the method described by Shay et al. which is described as follows: the rats were divided into medicated groups of at least five rats each and control groups of ten rats. The rats were medicated orally once daily for 2 days prior to stomach ligation and once again immediately following ligation. All drugs were administered as the free base, and control rats received only the vehicle of medication. The rats were housed individually in wire cages, food was withdrawn 48 hours prior to surgery, and water was withdrawn at the time of surgery. Laparotomy was performed under light ether anesthesia, the pyloric-duodenal junction was ligated, and the wound was closed with metal clips and sprayed with a protective surgical dressing. Five hours following surgery, the rats were sacrificed, the stomach was removed, and the gastric juice collected. The gastric fluid was centrifuged, the total volume, color, and volume of solids were recorded. The pH of the gastric fluid was then determined on a Beckman pH meter, and the "free" and "total" hydrochloric acid content of each gastric sample was determined by titrating an aliquot of the gastric fluid (diluted to approximately 10 ml. with distilled water) by titrating with 0.1N sodium hydroxide against Toepfers reagent and phenolphthalein, respectively. By determining the milliequivalents of hydrochloric acid per milliliter of gastric juice and knowing the total volume of gastric juice secreted by each rat, the total acid output can be calculated. Since pH is a function of "free" acid, the activity of the test compounds can be evaluated by comparison of the mean "free" acid of medicated rats with the mean "free" acid of the controls, and the activity can thus be expressed in terms of percent inhibition of free acid.
(§1) Data obtained on administration of the compounds of formula I in rats in the anti-secretory and anti-ulcer tests described above are given in the table below. Unless noted otherwise, data were obtained on oral administration. Results in the anti-secretory activity tests are given in terms of the pH of the gastric fluid in the test animals and the percent inhibition of free acid, while results in the anti-ulcer test are given either in terms of the percent inhibition of ulcers or as a ratio representing the number of animals with ulcers (as the numerator) to the total number of animals in the test group (as the denominator). All doses are expressed in mg./kg.

The subject of assay [2] is reserpine-induced stomach ulceration. Nature of the assay: anti-ulcer activity, reserpine-induced ulcer test (method of Selmici et al.). The conditions noted are these: oral; for inhibition in vivo at 100 mg/kg / Anti-Ulcer: ratio of number of animals with ulcers to total number of animals in the test group: 100 mg./kg. In kind it is in vivo, male, albino, Sprague-Dawley rats. Here is the method: The anti-ulcer activity of the compounds was determined using the reserpine-induced anti-ulcer test method, described by Selmici et al., which is described briefly as follows: male, albino, Sprague-Dawley rats, weighing approximately 300 g., were divided into medicated and control groups of at least five rats each, and one positive control group of five rats medicated with a known drug at the active dose was run with each experiment. The rats were medicated forty-eight, twenty-four, and one hour before receiving an injection of reserpine. All test drugs were administered orally in terms of base, and the control rats received only the vehicle of medication. The rats were housed individually in wire cages, and food was withdrawn 24 hours prior to injection of reserpine, while water was allowed ad libitum. One hour following the third medication, 5.0 mg. of reserpine per kilogram of body weight in a concentration of 5 mg./ml. was injected intramuscularly in each rat. Eighteen hours after injection the rats were sacrificed, their stomachs removed, opened along the greater curvature, rinsed in warm saline, and pinned to a cork board for gross observation. The stomachs were examined for the number and size of ulcerations located in the glandular portion of the stomach with the aid of a one millimeter grid ocular with a 10x dissecting microscope. The degree of ulceration was arbitrarily graded according to the number and size of the ulcers as follows:
The points were added together and divided by the number of rats in each group to give an ulcer score, and the difference in the mean scores of the medicated and control group was expressed as percent inhibition of ulceration. Alternatively, the results can be expressed as a ratio of the total number of rats with any degree of ulceration (as the numerator) to the total number of rats in the test group (as the denominator).
as §1

Like-named read-outs stand apart in the source and are kept apart here.

As to `Cc1c(C)n(CCC(N)=O)c2ccc(Cl)cc12` [Example 4B, β-(2,3-Dimethyl-5-chloro-1-indole)propionamide], in assay [1] (po, oral), the inhibition in vivo at 100 mg/kg was 88%. Further, the “pH of the gastric fluid” value in assay [1] (oral) was determined as 3.6. Moreover, the inhibition in vivo at 25 mg/kg in assay [2] (Rattus norvegicus, 18 h) turned out to be 95%.
The like results for `Cc1c(C)n(CCC(N)=O)c2ccc(F)cc12` [Example 4C, β-(2,3-Dimethyl-5-fluoro-1-indole)propionamide] were, in that order, 97%, 5.9 and 94%.
Regarding `CCc1c(C)c2ccccc2n1CCC(N)=O` [Example 4D, β-(2-Ethyl-3-methyl-1-indole)propionamide], the inhibition in vivo at 100 mg/kg in assay [1] (po, oral) turned out to be 88%; in assay [2] (Rattus norvegicus, 18 h), 97%. Besides, the “pH of the gastric fluid” value in assay [1] (oral) is given as 4.1.
In the case of `CCc1c(C)n(CCC(N)=O)c2ccccc12` [Example 4E, β-(2-Methyl-3-ethyl-1-indole)propionamide], the inhibition in vivo at 100 mg/kg in assay [1] (po, oral) turned out to be 42%. The “pH of the gastric fluid” value in assay [1] (oral) came out at 3.4. In assay [2] (Rattus norvegicus, 18 h, 6.25 mg./kg.), this molecule displayed an inhibition in vivo at 6.25 mg/kg of 60%. Also, the inhibition in vivo at 12.5 mg/kg in assay [2] (Rattus norvegicus, 18 h, 12.5 mg./kg.) came to 72%. For the same molecule, in assay [2] (Rattus norvegicus, 18 h), the inhibition in vivo at 25 mg/kg was 80% and the inhibition in vivo at 100 mg/kg was 93%. The molecule also showed an inhibition in vivo at 50 mg/kg in assay [2] (Rattus norvegicus, 18 h, 50 mg./kg.) of 94%.
Regarding `Cc1c(C=O)c2ccccc2n1CCC(N)=O` [Example 4F, β-(2-Methyl-3-formyl-1-indole)propionamide], in assay [1] (oral), the inhibition in vivo at 100 mg/kg turned out to be 0% and the “pH of the gastric fluid” value is listed as 1.2. The inhibition in vivo at 100 mg/kg in assay [2] (Rattus norvegicus, 18 h) came to 9%.
As to `Cc1c(C=O)c2cc(F)ccc2n1CCC(N)=O` [Example 4G, β-(2-Methyl-3-formyl-5-fluoro-1-indole)propionamide], the inhibition in vivo at 100 mg/kg in assay [1] (oral) stood at 17%; in assay [1] (sc, s.c.), 36%. The “pH of the gastric fluid” value came to 1.1 in assay [1] (oral) and 1.2 in assay [1] (s.c.). The “Anti-Ulcer: ratio of number of animals with ulcers to total number of animals in the test group” value (from here on “Anti-Ulcer: ratio of number of animals”) in assay [2] is 5/5.
`Cc1c(C)n(CC(C)C(N)=O)c2ccccc12` (stereo not drawn) [Example 4H, β-(2,3-Dimethyl-1-indole) -α-methylpropionamide]: the inhibition in vivo at 100 mg/kg was 100% in assay [1] (po, oral) and 89% in assay [2] (Rattus norvegicus, 18 h). In assay [1] (oral), the “pH of the gastric fluid” value stood at 5.7.
With `Cc1c(C=O)c2ccccc2n1CCCC(N)=O` [Example 4J, γ-(2-Methyl-3-formyl-1-indole)butyramide], in assay [1] (oral), the inhibition in vivo at 100 mg/kg was determined as 17% and the “pH of the gastric fluid” value stood at 1.2. The inhibition in vivo at 100 mg/kg in assay [2] (Rattus norvegicus, 18 h) came to 26%.
On to `Cc1c(C=O)n(CCC(N)=O)c2ccccc12` [Example 4K, β-(2-Formyl-3-methyl-1-indole)propionamide], for which the inhibition in vivo at 100 mg/kg in assay [1] (intraduodenal, i.d.) stood at 37%; in assay [1] (ip, i.p.), 54%. Further, the “pH of the gastric fluid” value amounted to 1.54 in assay [1] (i.d.), 2.30 in assay [1] (i.p.) and 1.16 in assay [1] (oral). For the same molecule, the “Anti-Ulcer: ratio of number of animals” value in assay [2] is 3/5.
As to `Cc1c(-c2ccccc2)n(CCC(N)=O)c2ccccc12` [Example 4M, β-(2-Phenyl-3-methyl-1-indole)propionamide], the inhibition in vivo at 100 mg/kg stood at 34% in assay [1] (intraduodenal, i.d.); 43% in assay [1] (ip, i.p.); 20% in assay [1] (po, oral). Besides, the figures for the “pH of the gastric fluid” value in assay [1] (i.d.), in assay [1] (i.p.) and in assay [1] (oral) were 1.2, 1.7 and 1.1, respectively. In addition, in assay [2], the “Anti-Ulcer: ratio of number of animals” value was 0/5.
As to `NC(=O)CCn1c(-c2ccccc2)c(C=O)c2ccccc21` [Example 4N, β-(2-Phenyl-3-formyl-1-indole)propionamide], the inhibition in vivo at 100 mg/kg stood at 0% in assay [1] (oral) and 0% in assay [1] (sc, s.c.). The “pH of the gastric fluid” value in assay [1] (oral) and in assay [1] (s.c.) was 1.0 each time. For the same molecule, the “Anti-Ulcer: ratio of number of animals” value in assay [2] is listed as 5/5.
In the case of `Cc1c(C)n(C(N)=O)c2ccc(Cl)cc12` [Example 5, 2,3-dimethyl-5-chloro-1-indolecarboxamide], the inhibition in vivo at 100 mg/kg in assay [1] (po, oral) was determined as 41%. In addition, the “pH of the gastric fluid” value in assay [1] (oral) is recorded as 2.0. The same molecule came in with an inhibition in vivo at 25 mg/kg in assay [2] (Rattus norvegicus, 18 h) of 0%.
On to `Cc1c(C=O)c2ccccc2n1CC(N)=O` [Example 6, 2-methyl-3-formyl-1-indoleacetamide], for which the inhibition in vivo at 100 mg/kg came out at 0% in assay [1] (oral) and 0% in assay [2] (Rattus norvegicus, 18 h). The “pH of the gastric fluid” value in assay [1] (oral) turned out to be 1.1.
Take `Cc1c(C)n(CC(N)=S)c2ccccc12` [Example 7A, 2,3-dimethyl-1-indolethioacetamide]: the inhibition in vivo at 100 mg/kg in assay [1] (po, oral) came to 58%. Moreover, the “pH of the gastric fluid” value in assay [1] (oral) is listed as 2.3. In addition, the inhibition in vivo at 25 mg/kg in assay [2] (Rattus norvegicus, 18 h) is 75%.
Turning to `Cc1c(C)n(CCC(N)=S)c2ccccc12` [Example 7B, β(2,3-dimethyl-1-indole)thiopropionamide], the inhibition in vivo at 100 mg/kg in assay [1] (po, oral) was found to be 60%; in assay [2] (Rattus norvegicus, 18 h), 100%. In addition, in assay [1] (oral), the “pH of the gastric fluid” value is given as 2.2.
Consider `Cc1c(CO)c2ccccc2n1CCC(N)=O` [Example 8A, β-(2-methyl-3-hydroxymethyl-1-indole)propionamide], for which the inhibition in vivo at 100 mg/kg in assay [1] (intraduodenal, i.d.) is 100%; in assay [1] (ip, i.p.) it was 100%; in assay [1] (po, oral), 69%; in assay [1] (sc, s.c.), 100%; in assay [2] (Rattus norvegicus, 18 h) it was 56%. Also, the “pH of the gastric fluid” value turned out to be 5.6 in assay [1] (i.d.), 7.0 in assay [1] (i.p.), 1.9 in assay [1] (oral) and 6.7 in assay [1] (s.c.).
With `Cc1c(CO)c2ccccc2n1CCCC(N)=O` [Example 8B, γ-(2-Methyl-3-hydroxymethyl-1-indole)butyramide], the inhibition in vivo at 100 mg/kg came to 5% in assay [1] (intraduodenal, i.d.); 62% in assay [1] (ip, i.p.); 5% in assay [1] (po, oral); 12% in assay [1] (sc, s.c.); 0% in assay [2] (Rattus norvegicus, 18 h). In addition, the “pH of the gastric fluid” value in assay [1] (i.d.) stood at 1.2; in assay [1] (i.p.), 2.4; in assay [1] (oral), 1.3; in assay [1] (s.c.) it was 1.2.
Turning to `NC(=O)CCn1c(-c2ccccc2)c(CO)c2ccccc21` [Example 8D, β-(2-Phenyl-3-hydroxymethyl-1-indole)propionamide], the inhibition in vivo at 100 mg/kg in assay [1] (po, oral) came to 28%; in assay [1] (sc, s.c.), 38%. Further, the “pH of the gastric fluid” value in assay [1] (oral) was determined as 1.5; in assay [1] (s.c.) it was 1.4. In assay [2], the “Anti-Ulcer: ratio of number of animals” value was 0/5.

The values above are taken from US4069337A, “2-Substituted-indole-1-lower-alkanecarboxamides having anti-secretory or anti-ulcer activity” (Sterling Drug Inc., priority 1976, dated 1978).
